# Experimental data from patent publication US9676734B2, “Compounds and methods” (VIRONOVA INFLUENZA AB, priority 2012, dated 2017).
# Tested on: Caco2
# Assay: Caco2 permeability assay
# Format: in vitro ADME
# Conditions: relative to Nucleozin
# Method: A Caco2 permeability assay was performed using the inventive compound VNFC 0009 as well as Nucleozin.
structure (smiles),measurement,setting,value
"Cc1onc(-c2ccccc2)c1C(=S)N1CCN(c2ccc([N+](=O)[O-])cc2Cl)CC1 [VNFC 0009, (4-(2-chloro-4-nitrophenyl)piperazin-1-yl)(5-methyl-3-phenylisoxazol-4-yl)methanethione]","Caco2 permeability in the apical to basal direction, higher than that of Nucleozin",apical to basal,about 30%
same,"basal to apical Caco2 permeability, times lower than that of Nucleozin",basal to apical,~7 times
